Counter-ions that a name gives are not always drawn. Bridge positions count the residues as written; N and C are the ends. Square brackets hold non-standard residues; d marks the D form. Peptide text beside a SMILES is read from it. * marks the point of attachment. X1 = CC[C@H](C)CCCCC(=O)*; Dab = NCC[C@H](N)C(=O)O
Test system: A. baumannii (CS01)
Experiment: In vivo PKPD model of PMB bactericidal effect and inoculum effect
Parameters: species or system Acinetobacter baumannii
Conditions: for mean IK-HL (initial killing half-life): mean over PMB concentrations; for kslope (kill rate constant due to PMB): model predicted
Excerpt: A PKPD model was developed in two steps to quantify the exposure-effect relationship of PMB in infected mice. First, time courses of total and unbound PMB concentrations were modeled and then, PK parameters were fixed during development of the PD part of the PKPD model.
The structural model for the bacterial population included one compartment representing drug-susceptible growing bacteria. A logistic function was used to model the self-limiting growth observed in vivo: dB/dt= knet×(1−B/Bmax)×B (1) Where, B (CFU/thigh) is the drug-susceptible bacterial population, knet (h^−1) is the apparent (net) growth rate constant and Bmax (CFU/thigh) the maximum bacterial count reached in the tissue. The residual error was additive on a log10 scale for bacterial counts (log10 CFU/thigh).
Predicted unbound plasma concentrations were linked to the bacterial sub-model using a mathematical function to characterize PMB antimicrobial effect (kPMB) such as: dB/dt= knet×(1−B/Bmax)×B − kPMB×B (2) Where multiple functions (linear, power, basic Emax or a sigmoidal Emax function) for kPMB were tested.
Empirical mathematical functions (i.e. linear, exponential and power) describing the relationship between kPMB and inoculum size were tested as a way to include the impact of inoculum size on PMB bactericidal activity.”
Model selection was based on objective function value (OFV) and goodness of fit (GOF) plots. When two models were nested, a decrease in OFV of at least 3.84 (chi square 1df p = 0.05) was needed to select the most complex model. Visual predictive checks (VPCs) based on 1,000 simulations were drawn after stratification on the PMB dose and the starting inoculum to evaluate the predictive performance of the model and were taken into account for model selection. Data below the LOQ were taken into account during parameter estimation by applying Beal’s M3 method ([Beal, 2001]). Parameter estimation was performed using NONMEM software (ICON, Dublin, Ireland) version 7.4.2 using the LAPLACIAN algorithm. Uncertainty around population parameters was estimated using the sampling importance resampling (SIR) technique ([Dosne et al., 2016]).
To evaluate the impact of outliers on parameter estimates and model-based inferences, a sensitivity analysis was performed. Briefly, model estimation was performed with the complete dataset and with a reduced dataset excluding outliers. Parameter estimates were compared and simulations of expected bacterial counts for all tested experimental conditions (i.e. all inocula and dosing regimens) were performed with the two parameter estimate sets.
The time course of bacterial counts was adequately described by the model depicted on Figure 1. VPCs of the final model are shown on Figure 3 and GOF plots on Supplementary Figure S4. PMB bactericidal effect (kPMB) was best described by a power function: kPMB = kslope × Cuγ (5) Where kslope corresponds to the kill rate constant due to PMB (L/mg.h), Cu the unbound PMB concentration (mg/L) and γ , the power parameter for PMB effect.
The inoculum effect was incorporated in the model as a decrease of kslope with increasing theoretical starting inoculum using a linear function: kslope=kslope,med +kinoc×(starting inoculum−6) (6) Where kslope,med is the kill rate constant for a theoretical starting inoculum of 6 log10 CFU/thigh corresponding to the median of the starting inoculum tested in the present study (5, 6 or 7 log10 CFU/thigh) and kinoc is the constant describing the inoculum effect on kslope.

CC[C@H](C)CCCCC(=O)N[C@@H](CCN)C(=O)N[C@H](C(=O)N[C@@H](CCN)C(=O)N[C@H]1CCNC(=O)[C@H]([C@@H](C)O)NC(=O)[C@H](CCN)NC(=O)[C@H](CCN)NC(=O)[C@H](CC(C)C)NC(=O)[C@@H](Cc2ccccc2)NC(=O)[C@H](CCN)NC1=O)[C@@H](C)O [PMB, Polymyxin B sulfate] (X1-[Dab]T[Dab][Dab][Dab][dF]L[Dab][Dab]T; lactam 4-C)
mean IK-HL higher at 10^7 CFU/thigh compared with 10^5 CFU/thigh inoculum (in vivo): 48% | mean IK-HL (initial killing half-life) (in vivo, inoculum 10^5 CFU/thigh): 32.4 min | mean IK-HL (initial killing half-life) (in vivo, inoculum 10^7 CFU/thigh): 48 min | kslope (kill rate constant due to PMB) (starting inoculum 5 log10 CFU/thigh): 19800 µL/min/mg | kslope (kill rate constant due to PMB) (starting inoculum 7 log10 CFU/thigh): 13500 µL/min/mg | decrease in the in vivo PMB bactericidal effect (starting inoculum increases from 10^5 to 10^7 CFU/thigh): 32% | change of kslope (starting inoculum increasing from 5 to 7 log10 CFU/thigh): −32% | Model derived initial killing half-life (unbound PMB 0.5 mg/L, inoculum 10^5 CFU/thigh): 39 min | Model derived initial killing half-life (unbound PMB 0.5 mg/L, inoculum 10^6 CFU/thigh): 47 min | Model derived initial killing half-life (unbound PMB 0.5 mg/L, inoculum 10^7 CFU/thigh): 58 min | Model derived initial killing half-life (unbound PMB 1 mg/L, inoculum 10^5 CFU/thigh): 35 min | Model derived initial killing half-life (unbound PMB 1 mg/L, inoculum 10^6 CFU/thigh): 42 min | Model derived initial killing half-life (unbound PMB 1 mg/L, inoculum 10^7 CFU/thigh): 52 min | Model derived initial killing half-life (unbound PMB 2 mg/L, inoculum 10^5 CFU/thigh): 31 min | Model derived initial killing half-life (unbound PMB 2 mg/L, inoculum 10^6 CFU/thigh): 37 min | Model derived initial killing half-life (unbound PMB 2 mg/L, inoculum 10^7 CFU/thigh): 46 min | Model derived initial killing half-life (unbound PMB 3 mg/L, inoculum 10^5 CFU/thigh): 29 min | Model derived initial killing half-life (unbound PMB 3 mg/L, inoculum 10^6 CFU/thigh): 35 min | Model derived initial killing half-life (unbound PMB 3 mg/L, inoculum 10^7 CFU/thigh): 43 min | Model derived initial killing half-life (unbound PMB 4 mg/L, inoculum 10^5 CFU/thigh): 28 min | Model derived initial killing half-life (unbound PMB 4 mg/L, inoculum 10^6 CFU/thigh): 33 min | Model derived initial killing half-life (unbound PMB 4 mg/L, inoculum 10^7 CFU/thigh): 41 min
